Measurements published in patent US20220257617A1, “COMPOSITIONS AND METHODS FOR KELOIDLESS HEALING” (priority 2017, published 2022).

How the values were obtained:
NIH 3T3 cells = experiment: Col1a1/Col3a1 mRNA expression in dermal fibroblasts (qRT-PCR); assay type: cell-based, mouse; conditions: for collagen transcription (Col1a1/Col3a1 mRNA): NIH 3T3 stimulated with 1 μM S1P for 24 hours in presence of 10 μM inhibitor
Method: Mouse dermal fibroblast NIH 3T3 cells were cultured in DMEM. To analyze the production of collagens, ascorbic acid 2-phosphate (Sigma-Aldrich) was added in culture medium to 0.2 mM of final concentration.
We performed sCA preparation as previously published (23). We mixed 4 μl of 1M CaCl2) with 2 μg of plasmid DNA in 1 mL of an inorganic solution (NaHCO3; 44 mM, NaH2PO4; 0.9 mM, CaCl2); 1.8 mM, pH 7.5), then incubated at 37° C. for 30 min. The solution was centrifuged at 12,000 rpm for 3 min, and the pellet was dissolved with DMEM. We sonicated the solution in a water bath for 10 min to generate sCA. Cells were cultured in 6 well plate for 24 hours, then incubated with sCA-DMEM solution for 6 hours. We changed medium into DMEM with 10% FBS and incubated for additional 48 hours, then collected for total RNA isolation.
Total RNA was extracted using TRIzol® Regent (Invitrogen). cDNA was then synthesized using High Capacity cDNA Reverse Transcription Kits (Applied Biosystems, Foster City, Calif.). qRT-PCR was performed using an CFX96 Real-Time System (Bio-Rad, Hercules, Calif.) with PowerUp SYBR Green master mix (Bio-Rad). GAPDH served as the internal control. Relative expression was calculated using the 2-ΔΔCt method with correction for different amplification efficiencies.

mouse excisional wound = experiment: Mouse excisional wound splinting model, wound area analysis; assay type: in vivo
Source text: Mouse excisional wound splinting model were generated as previously published 1. Mice were anesthetized using isoflurane and removed dorsal hair. Two of 5 mm-diameter full-thickness skin punches were created symmetrically besides the midline. 12 mm diameter circle-shaped silicon lubber splints in which 6 mm diameter circles were punched in center were used for wound splinting. […] were fixed with instant-bonding adhesive and sutures around wounds. After application with any ointment, dressings were performed with Tegaderm (3M, Maplewood, Minn.). S1P was purchased from Sigma-Aldrich (Carlsbad, Calif.). 1 mM S1P in 4% bovine serum albumin was prepared with sonication, diluted 1000-fold for 1 μM ointment or 10-fold for 100 μM ointment with Aquaphor® and mixed well. We generated sCA with 100 ug plasmid DNA and dissolved the sCA pellet with 50 μl PBS. Then we mixed all of the solution into 200 μl of Aquaphor®. We used 250 μl ointment for 4 wounds of 2 mice. Digital photo images were analyzed using GIMP 2.8 software. The pixels of wound area were normalized by those of inside area of silicon splint. Then, the ratios devised by wound area at day 0 were calculated.

[1] = system: inflammatory cells in wound; experiment: Flow cytometry of cells separated from mouse wound tissues; assay type: in vivo; conditions: 1 uM S1P topical vs vehicle
Source text: Mouse excisional wound splinting model were generated as previously published 1. Mice were anesthetized using isoflurane and removed dorsal hair. Two of 5 mm-diameter full-thickness skin punches were created symmetrically besides the midline. 12 mm diameter circle-shaped silicon lubber splints in which 6 mm diameter circles were punched in center were used for wound splinting. […] were fixed with instant-bonding adhesive and sutures around wounds. After application with any ointment, dressings were performed with Tegaderm (3M, Maplewood, Minn.). We performed cell separation from mouse wound tissues as previously published^4. We digested the tissues cut into small pieces in DMEM with 10% FBS, 1.2 mg/ml hyaluronidase (Sigma Aldrich), 2 mg/ml collagenase (Sigma Aldrich), and 0.2 mg/ml DNase I (Sigma Aldrich) at 37° C. for 90 min. Cell pellets were resuspended in PBS with 2% FBS, incubated with anti-CD16/32 antibody (Biolegend, San Diego, Calif.) for 5 min to block Fcγ receptors. For inflammatory cell recruitment analysis, we stained with phycoerythrin (PE)-conjugated anti-Gr-1, allophycocyanin (APC)-conjugated anti-CD3a, PE/CY7 conjugated anti-CD4, or fluorescein isothiocyanate (FITC)-conjugated anti-CD8a antibody (CiteAb, Bath, UK) at 4° C. for 20 min. […] Cells were analyzed with FACSDiva (BD, San Jose, Calif.).

wound tissue = experiment: Immunohistochemistry of wounds (F4/80, Ki67, CD34); assay type: in vivo, mouse; conditions: 1 uM S1P topical vs vehicle, day 5 after punch
Source text: Mouse excisional wound splinting model were generated as previously published 1. Mice were anesthetized using isoflurane and removed dorsal hair. Two of 5 mm-diameter full-thickness skin punches were created symmetrically besides the midline. 12 mm diameter circle-shaped silicon lubber splints in which 6 mm diameter circles were punched in center were used for wound splinting. […] were fixed with instant-bonding adhesive and sutures around wounds. After application with any ointment, dressings were performed with Tegaderm (3M, Maplewood, Minn.). We performed H&E, Masson's trichrome staining on paraffin-embedded sections. We used primary antibodies against F4/80, Ki67 and CD34. Immunostaining was developed with VECTASTAIN Universal Elite ABC Kit (Vector, Burlingame, Calif.). We purchased all antibodies from Abcam (Cambridge, UK). We analyzed the results using ImageJ.

scar neovasculature = experiment: Neovasculature analysis in scars; assay type: in vivo, mouse; conditions: S1P treatment vs vehicle, Balb/c mice, at the point of epithelization
Source text: We performed neovasculature analysis using standard approaches.

scar = experiment: Scar thickness analysis (Masson's trichrome); assay type: in vivo, mouse; conditions: 1 μM S1P topical vs vehicle, at the point of epithelization
Source text: We performed H&E, Masson's trichrome staining on paraffin-embedded sections. We used primary antibodies against F4/80, Ki67 and CD34. Immunostaining was developed with VECTASTAIN Universal Elite ABC Kit (Vector, Burlingame, Calif.). We purchased all antibodies from Abcam (Cambridge, UK). We analyzed the results using ImageJ. We calculated scar thickness with Masson's trichrome stain images using ImageJ.

[2] = NIH 3T3 stimulated with exogenous S1P for 24 hours

Compound | collagen transcription (Col1a1/Col3a1 mRNA) (NIH 3T3 cells) | wound closure (mouse excisional wound; 1 μM S1P topical treatment vs control vehicle) | wound closure (mouse excisional wound; 100 μM S1P treatment, Balb/c mice) | wound closure (mouse excisional wound; high concentration S1P (100 PM) vs vehicle, C57BL6/J mice) | recruitment of granulocytes (Gr-1 positive cells) ([1]; day 2 after punch) | percentage of T cells in wounds ([1]; day 5 after punch) | angiogenesis (CD34 immunohistochemistry) (wound tissue) | cell proliferation (Ki67) (wound tissue) | neovasculatures in scars (scar neovasculature) | scar thickness (scar) | transcription of Col1a1 (NIH 3T3 cells; [2]) | transcription of Col3a1 (NIH 3T3 cells; [2])
Cc1nn(C)c2nc(NNC(=O)Nc3cc(Cl)nc(Cl)c3)cc(C(C)C)c12 [JTE013, reference compound] | increased | – | – | – | – | – | – | – | – | – | – | –
CCCCCCCCCCCCC/C=C/[C@@H](O)[C@@H](N)COP(=O)(O)O [S1P, sphingosine-1-phosphate] | – | significantly promoted | significantly obstructed | no difference | does not influence | did not increase | promoting angiogenesis | no effect | confirmed the development of neovasculatures | statistically significant reduction in scar thickness were not obtained | inhibited | inhibited
CCCCCCCCc1cccc(NC(=O)[C@H](N)COP(=O)(O)O)c1 [VPC23019, reference compound] | increased | – | – | – | – | – | – | – | – | – | – | –
